In patent US20180325872A1, “COMPOUNDS FOR TREATMENT OF CANCER” (UNIVERSITY OF TENNESSEE RESEARCH FOUNDATION, priority 2013, published 2018):
Read-outs that look alike come from different tables or passages of the source. Blank lines part the entries; values can stand above or below the compound they belong to.

Tests used:
[1] = tested on: three melanoma cell lines and four human prostate cancer cell lines; assay: Antiproliferative activity, average over melanoma and prostate cancer cell lines; format: cell-based; conditions: for IC50: Homo sapiens, discussion of Tables 8-10
[2] = tested on: B16-F1 melanoma cells; assay: B16-F1 melanoma colony formation assay in soft agar; format: cell-based, mouse; conditions: 14 days
Experimental: B16-F1 melanoma cells were plated at a colony-forming density (2000 cells per well on six-well plates) on top of 0.8% base agar. Cells were grown in 0.4% agar together with DMEM medium supplemented with fetal bovine serum and an antibiotic-antimycotic solution at 37° C. in an atmosphere of 95% air and 5% CO2. […] Compounds were added to the media from 1 mM DMSO stock solutions, and a corresponding dilution of DMSO was used as control. Cells were grown for 14 days. Plates were photographed, and the number of colonies was measured by Artek 880 Automated Colony Counter (Artek Systems Corporation, Farmingdale, N.Y.).

[3] = biological target: T1, Bovine brain tubulin (Bos taurus, UniProt P81947+Q6B856); assay: In vitro microtubule polymerization assay (Example 6); format: biochemical; conditions: absorbance at 340 nm, 15 min; for inhibition of tubulin polymerization: 10 μM
T1 construct: purchased Cytoskeleton, Denver, Colo; host or cells: brain tissue
T1 sequence (P81947 whole entry): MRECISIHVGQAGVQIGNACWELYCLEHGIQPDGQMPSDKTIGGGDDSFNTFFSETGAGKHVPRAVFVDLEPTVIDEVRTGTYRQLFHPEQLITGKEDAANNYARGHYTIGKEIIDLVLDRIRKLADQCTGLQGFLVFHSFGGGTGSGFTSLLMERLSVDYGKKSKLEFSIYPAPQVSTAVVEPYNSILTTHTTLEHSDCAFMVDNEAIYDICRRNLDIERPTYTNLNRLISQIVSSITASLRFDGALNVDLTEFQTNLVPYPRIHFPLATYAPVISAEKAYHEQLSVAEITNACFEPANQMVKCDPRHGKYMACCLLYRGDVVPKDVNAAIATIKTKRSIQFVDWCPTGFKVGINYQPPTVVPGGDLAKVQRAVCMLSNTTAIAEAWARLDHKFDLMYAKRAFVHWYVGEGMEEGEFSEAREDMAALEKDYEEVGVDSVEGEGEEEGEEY
T1 sequence (Q6B856 whole entry): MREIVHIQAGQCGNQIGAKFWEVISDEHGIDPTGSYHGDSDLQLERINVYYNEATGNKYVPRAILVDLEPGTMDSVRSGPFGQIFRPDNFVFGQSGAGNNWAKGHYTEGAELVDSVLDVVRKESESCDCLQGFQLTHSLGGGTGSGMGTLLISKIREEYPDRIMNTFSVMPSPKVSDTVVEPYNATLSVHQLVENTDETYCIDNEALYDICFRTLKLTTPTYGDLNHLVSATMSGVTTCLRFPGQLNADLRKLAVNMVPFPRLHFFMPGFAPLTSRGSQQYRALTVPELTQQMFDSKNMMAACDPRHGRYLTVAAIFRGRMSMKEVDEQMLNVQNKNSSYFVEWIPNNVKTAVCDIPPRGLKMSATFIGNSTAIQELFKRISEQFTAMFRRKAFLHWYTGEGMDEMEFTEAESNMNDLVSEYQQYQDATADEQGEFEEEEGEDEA
Experimental: The absorbance at 340 nm was monitored every 1 min for 15 min by the SYNERGY 4 Microplate Reader (Bio-Tek Instruments, Winooski, Vt.). The spectrophotometer was set at 37° C. for tubulin polymerization.

[4] = tested on: melanoma nodules in the lungs; assay: Melanoma lung metastasis model in mice; format: in vivo, mouse; conditions: i.p. injection 5 days per week for 2 weeks (n=8 per group)
From the text: Panel A: Representative photos of lungs with melanoma nodules (black dots, n=8 per group). Treatment was i.p. injection 5 days per week for 2 weeks. Panel B: Number of melanoma nodules on each lung. Points: individual nodule number; long line in the middle: mean; short line on the top and bottom: 95% confidence intervals ** and ##: p<0.01. Panel C: Mouse body weight changes during the experiment. Points: means; bars: SD. Control: vehicle solution only.

[5] = tested on: A375 cells; assay: Cell cycle analysis (flow cytometry) in A375; format: cell-based, human
Experimental: (§1) Flow cytometry analysis was performed as described before (Wang Z, Chen J, Wang J, et al. “Novel tubulin polymerization inhibitors overcome multidrug resistance and reduce melanoma lung metastasis.” Pharm. Res. (2012) 29: 3040-3052). To determine cell cycle distributions in the G2 and M phases (FIG. 23), cells were harvested with trypsin, stained using antiphospho-histone H3-AlexaFluor® 488 antibody on ice for one hour in the dark, followed by stained using PI/RNase solution for 30 minutes at room temperature in the dark per the manufacturer's instructions (#FCCH025103, EMD Millipore Corporation, Ballerica, Mass.). Data were further processed and graphs were prepared using the Modfit 2.0 program (Verity Software House, Topsham, Me.).

[6] = tested on: pAKT/tAKT and pERK in A375RF21 cells; assay: Western blot analysis in A375RF21; format: cell-based, human
Experimental: (§2) At the indicated time treatment, human melanoma A375RF21, MDA-MB-435 or WM164 cells were collected to investigate relevant cascade protein or apoptosis markers by western blots. Total protein was extracted by lysing cells with RIPA buffer (Sigma-Aldrich, St. Louis, Mo.) containing phosphatase-proteinase inhibitor cocktail (Sigma-Aldrich, St. Louis, Mo.). General protein concentration was then determined by BCA method using kit (Sigma-Aldrich, St. Louis, Mo.). The cell lysates were diluted to equal general protein concentration using Laemmli loading buffer (Bio-Rad, Hercules, Calif.) and boiled for 5 min to denature the protein. Then group samples containing 10 μg general proteins were loaded to each well of 4-15% Tris-HCl pre-cast polyacrylamide gel (Bio-Rad, Hercules, Calif.) for electrophoresis and subsequently transferred to 0.2 μm nitrocellulose membrane (Bio-Rad, Hercules, Calif.). […] Target proteins were detected by incubating with 1× LumiGLO® reagent (Cell Signaling, #7003) for one minute and exposed to x-ray film. The films were scanned with grey scale and lane intensities were quantified with the ImageJ software (NIH, Bethesda, Md., USA).

[7] = tested on: A375RF21 cells; assay: Cell cycle analysis (flow cytometry) in A375RF21; format: cell-based, human; conditions: for G2/M arrest: A375RF21, 20 nM
Experimental: as §1

[8] = tested on: A375RF21 cells; assay: Cell proliferation MTS assay, vemurafenib-resistant A375RF21
[9] = tested on: A375 cells; assay: Cell proliferation MTS assay, parental A375; conditions: Homo sapiens, A-375, read-out: IC50 for proliferation inhibition
[10] = tested on: A375RF21 cells; assay: Apoptosis detection (Annexin V-FITC / propidium iodide); conditions: A375RF21, 48 h, Annexin V / propidium iodide flow cytometry
[11] = tested on: Bovine brain tubulin; assay: HTS-tubulin polymerization assay (Example 1); conditions: 20 μM, purified-protein assay
[12] = tested on: A375 human melanoma xenograft; assay: A375 human melanoma xenograft in SHO nude mice; format: in vivo; conditions: 12fb 25 mg/kg, 31 days
[13] = tested on: PC-3/TxR tumors; conditions: PC-3/TxR xenograft, day 1 and 9; for Tumor size, End: end point day 19
[14] = tested on: PC-3/TxR; assay: Apoptosis (cytoplasmic DNA-histone complex formation) in PC-3/TxR; format: cell-based, human; conditions: 0.8 to 600 nmol/L, 24 h
[15] = tested on: PC-3; assay: Apoptosis (cytoplasmic DNA-histone complex formation) in PC-3; format: cell-based, human; conditions: PC-3, 0.8 to 600 nmol/L, 24 h
[16] = tested on: PC-3 tumors; assay: PC-3 xenograft in nude mice; conditions: day 1 and 9, end point day 19
[17] = tested on: A375; assay: Cell culture cytotoxicity (SRB) assay, A375; format: cell-based, human; conditions: Table 9, SRB, 48 h; read-out: IC50 ± SEM (nM) A375
[18] = tested on: pAKT/tAKT in WM164 cells; assay: Western blot analysis in WM164; format: cell-based, human; conditions: WM164, 48 h
Experimental: as §2

[19] = tested on: A375 human melanoma xenograft; conditions: 12da 25 mg/kg; Wang Z et al., Pharm. Res. 29(11); cited from earlier work
[20] = tested on: NCl/ADR-RES; assay: In vitro growth inhibition, NCI/ADR-RES; format: cell-based; conditions: Homo sapiens, Table 9, read-out: IC50 ± SEM (nM) NCl/ADR-RES
[21] = tested on: A375RF21; assay: In vitro combination assay (combination index) in A375RF21; format: cell-based, human; conditions: combination with vemurafenib
[22] = tested on: pAKT/tAKT in MDA-MB-435 cells; assay: Western blot analysis in MDA-MB-435; format: cell-based, human; conditions: MDA-MB-435, 48 h
Experimental: as §2

[23] = tested on: OVCAR-8; assay: In vitro growth inhibition, OVCAR-8; format: cell-based; conditions: Homo sapiens, OVCAR-8; Table 9; read-out: IC50 ± SEM (nM) OVCAR-8
[24] = tested on: Du 145; assay: Cell culture cytotoxicity (SRB) assay, Du 145; conditions: read-out: inhibitory effects DU145; Table 10B, anti-proliferation

IC50 [1]: 1000 to 50000 nM
Compound: O=C(c1ccc(F)cc1)c1c[nH]c(-c2ccccc2C(F)(F)F)n1 [12ib, (4-fluorophenyl)(2-(2-(trifluoromethyl)phenyl)-1H-imidazol-4-yl)methanone]

Compound: COc1ccc(-c2nc(C(=O)c3ccc(F)cc3)c[nH]2)cc1 [12cb, (4-fluorophenyl)(2-(4-methoxyphenyl)-1H-imidazol-4-yl)methanone]
inhibition of colony formation ([2]; 20 nM): effectively inhibited
inhibition of tubulin polymerization [3]: inhibited tubulin polymerization
inhibition at 10 µM [3]: ~80%
inhibition of metastasis of melanoma to the lungs [4]: inhibition

Compound: CCCS(=O)(=O)Nc1ccc(F)c(C(=O)c2c[nH]c3ncc(-c4ccc(Cl)cc4)cc23)c1F [Vemurafenib]
G0/G1 arrest ([5]; A375, 1 μM, 24 h): effectively arrested
concentration needed to produce G0/G1 cell cycle arrest ([5]; parental A375, single agent): less than 1 μM
level of pAKT relative to tAKT ([6]; A375RF21, 48 h, quantified lane density): 70%
G0/G1 arrest ([7]; A375RF21, 1 μM, 24 h): could not arrest
concentration needed to produce G0/G1 cell cycle arrest ([7]; resistant A375RF21, single agent): ≥ 30 µM
IC50 ([8]; Homo sapiens, read-out: IC50 for proliferation inhibition): 28900 ± 600 nM
fold increase of IC50 in A375RF21 versus parental A375 ([8]; MTS assay): over 50 fold
IC50 [9]: 570 ± 30 nM
cell apoptosis or death (sum of Q1, Q2 and Q4) [10]: 11.9±3.5%
effect on tubulin polymerization [11]: did not significantly influence tubulin polymerization
effect on tubulin polymerization ([11]; listed as vemurafenib): did not have any effect on tubulin polymerization

Compound: O=C(c1ccc(F)cc1)c1c[nH]c(-c2ccc(Cl)cc2)n1 [12fb, (2-(4-chlorophenyl)-1H-imidazol-4-yl)(4-fluorophenyl)methanone]
tolerability [12]: well tolerated dose
inhibition of colony formation ([2]; 100 nM): effective inhibition
inhibition of metastasis of melanoma to the lungs [4]: inhibition

Compound: CC(=O)O[C@@]12CO[C@@H]1C[C@H](O)[C@@]1(C)C(=O)[C@H](O)C3=C(C)[C@@H](OC(=O)[C@H](O)[C@@H](NC(=O)OC(C)(C)C)c4ccccc4)C[C@@](O)([C@@H](OC(=O)c4ccccc4)[C@H]21)C3(C)C [Docetaxel, reference compound]
Tumor size, End ([13]; IV 10 mpk): 1774 ± 183 mm^3
Tumor size, Start ([13]; IV 10 mpk): 143 ± 20 mm^3
Tumor size, End ([13]; IV 20 mpk): 999 ± 905 mm^3
Tumor size, Start ([13]; IV 20 mpk): 170 ± 86 mm^3
induction of cell apoptosis (DNA-histone complexes) [14]: weaker
induction of cell apoptosis (DNA-histone complexes) [15]: highly potent to induce apoptosis
Body weight, End ([16]; IV 10 mpk): 24 ± 2 g
Body weight, End ([16]; IV 20 mpk): 24 ± 3 g
G2/M arrest ([7]; 24 h): induced G2/M arrest
cell apoptosis or death (sum of Q1, Q2 and Q4) [10]: 6.4±3.0%

Compound: COc1cc(C(=O)c2c[nH]c(-c3ccc(O)cc3)n2)cc(O)c1OC [12kc]
IC50 [17]: 10000 nM

Compound: O=C(c1ccc(F)cc1)c1c[nH]c(-c2ccc(OCc3ccccc3)cc2)n1 [12jb, (2-(4-(benzyloxy)phenyl)-1H-imidazol-4-yl)(4-fluorophenyl)methanone]
fold increase in activity compared with the para-hydroxy compound 12kb ([1]; discussion of Table 9): 440 fold

Compound: COc1cc(C(=O)c2c[nH]c(-c3ccc(C)cc3)n2)cc(OC)c1OC [12da, (2-(p-tolyl)-1H-imidazol-4-yl)(3,4,5-trimethoxyphenyl)methanone]
pAKT/tAKT inhibition [18]: strong dose-dependent pAKT/tAKT inhibition effects
inhibition of colony formation ([2]; 20 nM): effectively inhibited
suppression of parental A375 melanoma tumor growth in vivo [19]: effective
inhibition of tubulin polymerization [3]: inhibited tubulin polymerization
effect on pERK or total ERK level ([6]; A375RF21, 48 h incubation): no obvious effect
IC50 [20]: 19 nM
G2/M arrest ([7]; 24 h): induced G2/M arrest
calculated CI values, all concentrations tested [21]: 0.53-0.70
inhibition of metastasis of melanoma to the lungs [4]: inhibition
pAKT/tAKT inhibition [22]: strong dose-dependent pAKT/tAKT inhibition effects
IC50 [23]: 47 nM

Compound: COc1ccc(C(=O)c2nc(-c3cc(OC)c(OC)c(OC)c3)c[nH]2)cc1 [70y]
IC50 [24]: > 50000 nM

inhibition of tubulin polymerization [3]: inhibited tubulin polymerization
Compound: Cc1ccc(-c2nc(C(=O)c3ccc(F)cc3)c[nH]2)cc1 [12db, (4-fluorophenyl)(2-(p-tolyl)-1H-imidazol-4-yl)methanone]

IC50 [1]: 1000 to 50000 nM
Compound: COc1cc(C(=O)c2c[nH]c(-c3cc(OC)c(OC)c(OC)c3)n2)cc(OC)c1OC [12ea, (3,4,5-trimethoxyphenyl)(2-(3,4,5-trimethoxyphenyl)-1H-imidazol-4-yl)methanone]
